Data published in patent US8148347B2, “Inhibition of interaction of PSD93 and PSDS95 with nNOS and NMDA receptors” (The Johns Hopkins University, priority 2000, dated 2012).

Tested on: Male Sprague-Dawley rats
Assay: radiant heat tail-flick test, baseline and NMDA-induced thermal hyperalgesia
Type: in vivo, rat
Settings: for percentage change of TF latency (baseline tail-flick latency): without NMDA, compared to the control group
Excerpt: To examine whether PSD-95/SAP90 was required for thermal hyperalgesia triggered through NMDA receptor activation, we made an antisense oligonucletide (OND) corresponding to the PDZ domain nucleotides 241 to 258 (5′-[…]-3′; SEQ ID NO: 1) of rat PSD-95/SAP90 mRNA, as well as the sense OND and missense OND (5′-[…]-3′; SEQ ID NO: 2). All of the ONDs were compared to the Gene Bank database (GenBank accession number M96853) and found not to be complementary to any registered nucleotide sequences. The effects of antisense, sense and missense ONDs on baseline and NMDA-induced tail-flick latencies were assessed. […] To identify that NMDA-induced thermal hyperalgesia was produced specifically through NMDA receptor activation but not non-NMDA receptor activation, we observed the effects of a selective NMDA receptor antagonist, MK-801, and a selective non-NMDA receptor antagonist, DNQX, on NMDA-induced facilitation of the tail-flick reflex. […] In addition, motor weakness or dysfunction was not observed in locomotor tests (including placing reflex, grasping reflex and righting reflex) in any of the treated animals including the antisense groups (data not shown).
Animal preparation and behavioral testing. All experiments were carried out with the approval of the Animal Care Committee at the Johns Hopkins University and were consistent with the ethical guidelines of the National Institutes of Health and the International Association for the Study of Pain. Male Sprague-Dawley rats (250-300 g) were implanted with an intrathecal PE-10 catheter into the subarachnoid space at the rostral level of the spinal cord lumbar enlargement through an incision at the atlanto-occipital membrane according to the method as described.^25,27 One week or more later, the rats were injected intrathecally with saline or ONDs every 24 h for 4 days. On the fifth day, saline, NMDA, MK-801+NMDA or DNQX+NMDA was given intrathecally. Nociception was evaluated by the radiant heat tail-flick test. The doses and time point of maximal effect of NMDA used in the present study were determined based on a previous study.^24 The tail-flick apparatus (Model 33B Tail Flick Analgesy Meter, IITC Life Science, Woodland Hills, Calif., USA) generated a beam of radiant heat that was focused on the underside of the tail, 5 cm from the tip. A cut-off time latency of 13.5 s was used to avoid tissue damage to the tail. Nociception was assessed by the time required to induce tail-flick after applying radiant heat to the skin of the tail. The latency of reflexive removal of the tail from the heat was measured automatically to the nearest 0.01 s. Tail-flick latency was measured five times, and the basal latency was defined as the mean. Tail-flick data were expressed as percentage change calculated by the formula: (trial latency−baseline latency)/(baseline latency)×100%. Finally, PE-10 catheter position from each animal was confirmed when lumbar enlargement segments were removed for western blot analysis. PCR analysis of PSD-95/SAP90 in rat spinal cord. The cDNA sequences encoding portions of the PSD-95/SAP90 were amplified using the following synthetic OND primers: PSD1 (5′-[…]-3′; SEQ ID NO: 3) and PSD2 (5′-[…]-3′; SEQ ID NO: 4) for amplification of PSD-95/SAP90 codon positions 789-1525. RNA samples (1 μg) from rat spinal cord, brain and muscle were reverse transcribed to generate first-strand cDNA. The PCR reactions were performed for 25 cycles. Each cycle included 30 s at 94° C., 30 s at 55° C., and 30 s at 71° C. The PCR products were directly cloned into the TA cloning vector (Invitrogen Co., San Diego, Calif., USA) and verified by automatic DNA sequencing. Fusion protein construction and preparation. cDNA sequence encoding portion of PSD-95/SAP90 was amplified by PCR and subcloned in-frame into PGEX-2T (GIBCO, Rockville, Md., USA) via the BamHI and EcoRI restriction digest sites. […]

[1] = 50 μg/10 μl intrathecal every 24 h for 4 days + NMDA

Substance	NMDA-produced facilitation of the tail-flick reflex after pretreatment (attenuated or not) (50 μg/10 μl every 24 h for 4 days)	ΔTF latency (%) [1] [%]	percentage change of TF latency (baseline tail-flick latency) [%]	prevention of the NMDA-induced decrease of the tail-flick latency (25 μg intrathecal) [%]	NMDA-produced facilitation of the tail-flick reflex after pretreatment (25 μg/10 μl and 50 μg/10 μl every 24 h for 4 days)	ΔTF latency (%) (25 μg/10 μl intrathecal every 24 h for 4 days + NMDA)	prevention of the NMDA-induced decrease of the tail-flick latency (50 μg intrathecal) [%]	tail flick latency in response to NMDA stimulation after recovery (recovery for an additional four days after treatment)
5′-AAGCCCTTGTTCCCATTT-3′ (DNA, backbone and methylation of C not given here; listed as Rattus rattus) [MS, missense OND control, reference compound]	not	−20.96	−2.05±1.57					
5′-TGTGATCTCCTCATACTC-3′ (DNA, backbone and methylation of C not given here; listed as Rattus rattus) [antisense oligonucletide corresponding to the PDZ domain nucleotides 241 to 258 of rat PSD-95/SAP90 mRNA]		−4.72	0.44±1.95	55	attenuated	−11.65	82	returned to normal
